Laboratory results as given in ChEMBL document CHEMBL5241089, “Matrix metalloproteinases inhibitors in idiopathic pulmonary fibrosis: Medicinal chemistry perspectives” (Eur J Med Chem, 2021).

Key:
Stromelysin-2 [1] = target: T1, Stromelysin-2 (Homo sapiens, UniProt P09238); assay: Inhibition of MMP-10 (unknown origin)
Stromelysin-2 [2] = target: T1, Stromelysin-2; assay: Inhibition of MMP10 (unknown origin) using FRET peptide

T1 sequence (P09238 whole entry): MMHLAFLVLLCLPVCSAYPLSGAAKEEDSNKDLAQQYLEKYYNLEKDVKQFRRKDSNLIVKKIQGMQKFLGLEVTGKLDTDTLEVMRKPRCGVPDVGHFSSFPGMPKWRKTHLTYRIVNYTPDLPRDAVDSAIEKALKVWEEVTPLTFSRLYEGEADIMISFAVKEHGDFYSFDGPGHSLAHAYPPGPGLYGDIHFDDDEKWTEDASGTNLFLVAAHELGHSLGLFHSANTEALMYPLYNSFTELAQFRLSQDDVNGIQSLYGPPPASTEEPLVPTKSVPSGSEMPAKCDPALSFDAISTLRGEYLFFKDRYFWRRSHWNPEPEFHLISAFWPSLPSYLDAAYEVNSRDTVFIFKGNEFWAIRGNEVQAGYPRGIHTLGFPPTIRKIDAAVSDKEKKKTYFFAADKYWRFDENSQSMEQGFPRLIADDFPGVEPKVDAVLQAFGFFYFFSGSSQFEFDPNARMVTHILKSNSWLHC

| IC50 (Stromelysin-2 [1]) [nM] | IC50 (Stromelysin-2 [2]) [nM] | SMILES |
| --- | --- | --- |
| 24 |  | CC(=O)N1c2nc(C)cc(=O)n2[C@H](c2ccc(Br)cc2)N1C(C)=O |
|  | 1200 | O=C(O)CCCCCCCCOc1ccc(CC(=O)Nc2ccc3c(c2)C(=O)N(Cc2ccccc2)C3=O)cc1 |
